Numbered stars: 1 amine (or outer) side, 2 acyl side, 3 side chain; on linkers, the order of the positions; unused ones are H or OH. Bridge positions count the residues as written; N and C are the ends. Square brackets hold non-standard residues; d marks the D form. Peptide text beside a SMILES is read from it. * marks the point of attachment. ξ: configuration not given here. Bip = N[C@@H](Cc1ccc(-c2ccccc2)cc1)C(=O)O; X13 = N[C@@H](CN*)C(=O)NCCCCCCCCCCC(=O)O; X14 = N[C@H](CN*)C(=O)NCCCCCCCCCCC(=O)O; Phe(3-Me) = Cc1cccc(C[C@H](N)C(=O)O)c1; X16 = O=C(C1CCC(CN[*:1])CC1)[*:2]; X6 = O=C(Cc1ccc(CN[*:1])cc1)[*:2]; hhGln = NC(=O)CCCC[C@H](N)C(=O)O; Cha = N[C@@H](CC1CCCCC1)C(=O)O; Cit = NC(=O)NCCC[C@H](N)C(=O)O; Carboxymethyl = O=C(O)C*; Orn = NCCC[C@H](N)C(=O)O; Aun = NCCCCCCCCCCC(=O)O; Dab = NCC[C@H](N)C(=O)O; ξE = NC(CCC(=O)O)C(=O)O; Dap = NC[C@H](N)C(=O)O; AEEA = NCCOCCOCC(=O)O
Target: T1, PD-1/PD-L1 interaction (PE-labeled human PD-L1-Ig binding to Jurkat cell line over-expressing human PD-1) (Homo sapiens, UniProt Q15116)
T1 construct: expressed in transfected cells; host or cells: Jurkat
Experiment: Jurkat-PD-1 Cell Binding High-Content Screening Assay (CBA)
Assay type: cell-based
Conditions: Jurkat cell line over-expressing human PD-1; PE-labeled PD-L1-Ig 20 nM final; read-out: Jurkat hPD1-PDL1 IC50
In short: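 Binding of fluorescent PD-L1-Ig (phycoerythrin on Ig tag, 20 nM final, 1 h) measured by high-content imaging of fixed, Hoechst-counterstained Jurkat-hPD-1 cells. Compound added 2 h at 37° C beforehand, in DMEM with 10% fetal calf serum.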

T1 sequence (Q15116 25-288): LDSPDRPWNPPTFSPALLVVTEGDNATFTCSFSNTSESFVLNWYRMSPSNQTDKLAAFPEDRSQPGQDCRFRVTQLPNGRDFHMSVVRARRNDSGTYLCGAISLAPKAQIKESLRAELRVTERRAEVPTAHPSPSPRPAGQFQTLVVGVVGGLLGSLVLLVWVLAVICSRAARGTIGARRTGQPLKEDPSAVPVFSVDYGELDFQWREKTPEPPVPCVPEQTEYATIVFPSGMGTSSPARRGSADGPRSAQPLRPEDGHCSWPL

| SMILES | IC50 [nM] |
| --- | --- |
| Cc1cccc(C[C@@H]2NC(=O)[C@H](CC(=O)O)NC(=O)[C@H](Cc3ccc(OCC(=O)O)cc3)NC(=O)[C@H](CN)NC(=O)CSC[C@@H](C(=O)N[C@@H](C)C(=O)NC(CCC(=O)O)C(=O)NCCOCCOCC(=O)NCCCCCCCCCCC(=O)O)NC(=O)[C@H](CCCN)NC(=O)[C@H](C(C)C)NC(=O)[C@H](CC3CCCCC3)NC(=O)[C@H](CCN)NC(=O)[C@@H](CC(C)C)NC(=O)[C@H](CCCN)NC(=O)[C@H](CCCCC(N)=O)NC(=O)[C@H](Cc3ccc(-c4ccccc4)cc3)NC(=O)[C@H](C(C)C)NC2=O)c1 (stereo partly drawn) [Compound 2615] ({CH2CO}-[Dap]Y(Carboxymethyl)D[Phe(3-Me)]V[Bip][hhGln][Orn][dL][Dab][Cha]V[Orn]CA[ξE][AEEA][Aun]-OH; thioether N-14) | 8.5 |
| Cc1cccc(C[C@@H]2NC(=O)[C@H](CC(=O)O)NC(=O)[C@H](Cc3ccc(OCC(=O)O)cc3)NC(=O)[C@H](CN)NC(=O)CSC[C@@H](C(=O)N[C@@H](C)C(=O)NC(CCC(=O)O)C(=O)NCCOCCOCC(=O)NCCCCCCCCCCC(=O)O)NC(=O)[C@H](CN)NC(=O)[C@H](C(C)C)NC(=O)[C@H](CC3CCCCC3)NC(=O)[C@H](CCN)NC(=O)[C@@H](CC(C)C)NC(=O)[C@H](CCCN)NC(=O)[C@H](CCCNC(N)=O)NC(=O)[C@H](Cc3ccc(-c4ccccc4)cc3)NC(=O)[C@H](C(C)C)NC2=O)c1 (stereo partly drawn) [Compound 2616] ({CH2CO}-[Dap]Y(Carboxymethyl)D[Phe(3-Me)]V[Bip][Cit][Orn][dL][Dab][Cha]V[Dap]CA[ξE][AEEA][Aun]-OH; thioether N-14) | 16.1 |
| Cc1cccc(C[C@@H]2NC(=O)[C@H](CC(=O)O)NC(=O)[C@H](Cc3ccc(OCC(=O)O)cc3)NC(=O)[C@H](CN)NC(=O)CSC[C@@H](C(=O)N[C@@H](C)C(=O)N[C@@H](CCC(=O)O)C(=O)NCCCCCCCCCCC(=O)O)NC(=O)[C@H](CCCN)NC(=O)[C@H](C(C)C)NC(=O)[C@H](CC3CCCCC3)NC(=O)[C@H](CCN)NC(=O)[C@@H](CC(C)C)NC(=O)[C@H](CCCN)NC(=O)[C@H](CCCNC(N)=O)NC(=O)[C@H](Cc3ccc(-c4ccccc4)cc3)NC(=O)[C@H](C(C)C)NC2=O)c1 [Compound 2617] ({CH2CO}-[Dap]Y(Carboxymethyl)D[Phe(3-Me)]V[Bip][Cit][Orn][dL][Dab][Cha]V[Orn]CAE[Aun]-OH; thioether N-14) | 6.3 |
| Cc1cccc(C[C@@H]2NC(=O)[C@H](CC(=O)O)NC(=O)[C@H](Cc3ccc(OCC(=O)O)cc3)NC(=O)[C@H](CN)NC(=O)CSC[C@@H](C(=O)N[C@@H](C)C(=O)N[C@@H](CCC(=O)O)C(=O)NCCCCCCCCCCC(=O)O)NC(=O)[C@H](CN)NC(=O)[C@H](C(C)C)NC(=O)[C@H](CC3CCCCC3)NC(=O)[C@H](CCN)NC(=O)[C@@H](CC(C)C)NC(=O)[C@H](CCCN)NC(=O)[C@H](CCCNC(N)=O)NC(=O)[C@H](Cc3ccc(-c4ccccc4)cc3)NC(=O)[C@H](C(C)C)NC2=O)c1 [Compound 2618] ({CH2CO}-[Dap]Y(Carboxymethyl)D[Phe(3-Me)]V[Bip][Cit][Orn][dL][Dab][Cha]V[Dap]CAE[Aun]-OH; thioether N-14) | 12.5 |
| Cc1cccc(C[C@@H]2NC(=O)[C@H](CC(=O)O)NC(=O)[C@H](Cc3ccc(OCC(=O)O)cc3)NC(=O)[C@H](CN)NC(=O)CSC[C@@H](C(=O)NCC3CCC(C(=O)NCCCCCCCCCCC(=O)O)CC3)NC(=O)[C@H]([C@@H](C)O)NC(=O)[C@H](C(C)C)NC(=O)[C@H](CC3CCCCC3)NC(=O)[C@H](CCN)NC(=O)[C@@H](CC(C)C)NC(=O)[C@H](CCCN)NC(=O)[C@H](CCCNC(N)=O)NC(=O)[C@H](Cc3ccc(-c4ccccc4)cc3)NC(=O)[C@H](C(C)C)NC2=O)c1 (stereo partly drawn) [Compound 2623] ({CH2CO}-[Dap]Y(Carboxymethyl)D[Phe(3-Me)]V[Bip][Cit][Orn][dL][Dab][Cha]VTC[X16][Aun]-OH; thioether N-14) | 27.5 |
| Cc1cccc(C[C@@H]2NC(=O)[C@H](CC(=O)O)NC(=O)[C@H](Cc3ccc(OCC(=O)O)cc3)NC(=O)[C@H](CN)NC(=O)CSC[C@@H](C(=O)NCc3ccc(CC(=O)NCCCCCCCCCCC(=O)O)cc3)NC(=O)[C@H]([C@@H](C)O)NC(=O)[C@H](C(C)C)NC(=O)[C@H](CC3CCCCC3)NC(=O)[C@H](CCN)NC(=O)[C@@H](CC(C)C)NC(=O)[C@H](CCCN)NC(=O)[C@H](CCCNC(N)=O)NC(=O)[C@H](Cc3ccc(-c4ccccc4)cc3)NC(=O)[C@H](C(C)C)NC2=O)c1 [Compound 2624] ({CH2CO}-[Dap]Y(Carboxymethyl)D[Phe(3-Me)]V[Bip][Cit][Orn][dL][Dab][Cha]VTC[X6][Aun]-OH; thioether N-14) | 34.5 |
| CC(C)C[C@H]1NC(=O)[C@H](CCCN)NC(=O)[C@H](CCCNC(N)=O)NC(=O)[C@H](Cc2ccc(-c3ccccc3)cc2)NC(=O)[C@H](C(C)C)NC(=O)[C@H](Cc2c[nH]c3ccccc23)NC(=O)[C@H](CC(=O)O)NC(=O)[C@H](Cc2ccc(OCC(=O)O)cc2)NC(=O)[C@H](CN)NC(=O)CSC[C@@H](C(=O)NCCOCCOCC(=O)N[C@@H](CCN)C(=O)NCCCCCCCCCCC(=O)O)NC(=O)[C@H](CCCCN)NC(=O)[C@H](C(C)C)NC(=O)[C@H](CC2CCCCC2)NC(=O)[C@H](CCN)NC1=O [Compound 2625] ({CH2CO}-[Dap]Y(Carboxymethyl)DWV[Bip][Cit][Orn][dL][Dab][Cha]VKC[AEEA][Dab][Aun]-OH; thioether N-14) | 16.7 |
| CC[C@H](C)[C@@H]1NC(=O)[C@H](Cc2ccc(-c3ccccc3)cc2)NC(=O)[C@H](C(C)C)NC(=O)[C@H](Cc2c[nH]c3ccccc23)NC(=O)[C@H](CC(=O)O)NC(=O)[C@H](Cc2ccc(OCC(=O)O)cc2)NC(=O)[C@H](CN)NC(=O)CSC[C@@H](C(=O)NCCOCCOCC(=O)N[C@@H](CCN)C(=O)NCCCCCCCCCCC(=O)O)NC(=O)[C@H](CCCCN)NC(=O)[C@H](C(C)C)NC(=O)[C@H](CC2CCCCC2)NC(=O)[C@H](CCN)NC(=O)[C@@H](CC(C)C)NC(=O)[C@H](CCCN)NC1=O [Compound 2626] ({CH2CO}-[Dap]Y(Carboxymethyl)DWV[Bip]I[Orn][dL][Dab][Cha]VKC[AEEA][Dab][Aun]-OH; thioether N-14) | 11.9 |
| Cc1cccc(C[C@@H]2NC(=O)[C@H](CC(=O)O)NC(=O)[C@H](Cc3ccc(OCC(=O)O)cc3)NC(=O)[C@H](CN)NC(=O)CSC[C@@H](C(=O)NCCOCCOCC(=O)N[C@@H](CCN)C(=O)NCCCCCCCCCCC(=O)O)NC(=O)[C@H](CN)NC(=O)[C@H](C(C)C)NC(=O)[C@H](CC3CCCCC3)NC(=O)[C@H](CCN)NC(=O)[C@@H](CC(C)C)NC(=O)[C@H](CCCN)NC(=O)[C@H](CCCNC(N)=O)NC(=O)[C@H](Cc3ccc(-c4ccccc4)cc3)NC(=O)[C@H](C(C)C)NC2=O)c1 [Compound 2627] ({CH2CO}-[Dap]Y(Carboxymethyl)D[Phe(3-Me)]V[Bip][Cit][Orn][dL][Dab][Cha]V[Dap]C[AEEA][Dab][Aun]-OH; thioether N-14) | 14.1 |
| CC[C@H](C)[C@@H]1NC(=O)[C@H](Cc2ccc(-c3ccccc3)cc2)NC(=O)[C@H](C(C)C)NC(=O)[C@H](Cc2cccc(C)c2)NC(=O)[C@H](CC(=O)O)NC(=O)[C@H](Cc2ccc(OCC(=O)O)cc2)NC(=O)[C@H](CN)NC(=O)CSC[C@@H](C(=O)NCCOCCOCC(=O)N[C@@H](CCN)C(=O)NCCCCCCCCCCC(=O)O)NC(=O)[C@H](CN)NC(=O)[C@H](C(C)C)NC(=O)[C@H](CC2CCCCC2)NC(=O)[C@H](CCN)NC(=O)[C@@H](CC(C)C)NC(=O)[C@H](CCCN)NC1=O [Compound 2628] ({CH2CO}-[Dap]Y(Carboxymethyl)D[Phe(3-Me)]V[Bip]I[Orn][dL][Dab][Cha]V[Dap]C[AEEA][Dab][Aun]-OH; thioether N-14) | 15.1 |

The remaining lines, values ahead:

| IC50 [nM] | SMILES |
| --- | --- |
| 24.4 | Cc1cccc(C[C@@H]2NC(=O)[C@H](CC(=O)O)NC(=O)[C@H](Cc3ccc(OCC(=O)O)cc3)NC(=O)[C@H](CN)NC(=O)CSC[C@@H](C(=O)N[C@@H](C)CC(=O)NCCCCCCCCCCC(=O)O)NC(=O)[C@H]([C@@H](C)O)NC(=O)[C@H](C(C)C)NC(=O)[C@H](CC3CCCCC3)NC(=O)[C@H](CCN)NC(=O)[C@@H](CC(C)C)NC(=O)[C@H](CCCN)NC(=O)[C@H](CCCNC(N)=O)NC(=O)[C@H](Cc3ccc(-c4ccccc4)cc3)NC(=O)[C@H](C(C)C)NC2=O)c1 [Compound 2619] |
| 28.1 | Cc1cccc(C[C@@H]2NC(=O)[C@H](CC(=O)O)NC(=O)[C@H](Cc3ccc(OCC(=O)O)cc3)NC(=O)[C@H](CN)NC(=O)CSC[C@@H](C(=O)N[C@H](C)CC(=O)NCCCCCCCCCCC(=O)O)NC(=O)[C@H]([C@@H](C)O)NC(=O)[C@H](C(C)C)NC(=O)[C@H](CC3CCCCC3)NC(=O)[C@H](CCN)NC(=O)[C@@H](CC(C)C)NC(=O)[C@H](CCCN)NC(=O)[C@H](CCCNC(N)=O)NC(=O)[C@H](Cc3ccc(-c4ccccc4)cc3)NC(=O)[C@H](C(C)C)NC2=O)c1 [Compound 2620] |
| 16.8 | Cc1cccc(C[C@@H]2NC(=O)[C@H](CC(=O)O)NC(=O)[C@H](Cc3ccc(OCC(=O)O)cc3)NC(=O)[C@H](CN)NC(=O)CSC[C@@H](C(=O)NC[C@H](N)C(=O)NCCCCCCCCCCC(=O)O)NC(=O)[C@H]([C@@H](C)O)NC(=O)[C@H](C(C)C)NC(=O)[C@H](CC3CCCCC3)NC(=O)[C@H](CCN)NC(=O)[C@@H](CC(C)C)NC(=O)[C@H](CCCN)NC(=O)[C@H](CCCNC(N)=O)NC(=O)[C@H](Cc3ccc(-c4ccccc4)cc3)NC(=O)[C@H](C(C)C)NC2=O)c1 [Compound 2621] ({CH2CO}-[Dap]Y(Carboxymethyl)D[Phe(3-Me)]V[Bip][Cit][Orn][dL][Dab][Cha]VTC-X13; thioether N-14) |
| 30.6 | Cc1cccc(C[C@@H]2NC(=O)[C@H](CC(=O)O)NC(=O)[C@H](Cc3ccc(OCC(=O)O)cc3)NC(=O)[C@H](CN)NC(=O)CSC[C@@H](C(=O)NC[C@@H](N)C(=O)NCCCCCCCCCCC(=O)O)NC(=O)[C@H]([C@@H](C)O)NC(=O)[C@H](C(C)C)NC(=O)[C@H](CC3CCCCC3)NC(=O)[C@H](CCN)NC(=O)[C@@H](CC(C)C)NC(=O)[C@H](CCCN)NC(=O)[C@H](CCCNC(N)=O)NC(=O)[C@H](Cc3ccc(-c4ccccc4)cc3)NC(=O)[C@H](C(C)C)NC2=O)c1 [Compound 2622] ({CH2CO}-[Dap]Y(Carboxymethyl)D[Phe(3-Me)]V[Bip][Cit][Orn][dL][Dab][Cha]VTC-X14; thioether N-14) |

— US20260022142A1, “MACROCYCLIC IMMUNOMODULATORS” (Bristol-Myers Squibb Company, priority 2022, published 2026)
